Laboratory results published in PubChem BioAssay (NCI).
Where “and” joins values, the source holds several entries; their conditions need not be identical. Equal values may be shown once.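 Protocol summary: plate cells (96-well), add compound at 5 concentrations, incubate 48 h, interpolate endpoints linearly. GI50 = concentration required for 50% inhibition of growth. At the TGI there is no net growth.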

These compounds were tested on HCC-2998 colon (assay: DTP human tumour cell line panel, 48 h).

Q: Which TGI does the source give for `COC12C=C(C)C(CC1)CC2C(=O)O` (stereo unspecified) here?
A: > 100 µM

Q: Which GI50 does the source give for `OCC(O)CC[CH2][Sn]([Br])([c]1ccccc1)[c]1ccccc1` (stereo unspecified) here?
A: > 100 µM

Q: And the TGI?
A: > 100 µM

Q: Which results are given for `CCc1ccc(/C=C\c2cc(OC)c(OC)c(OC)c2)cc1`?
A: GI50: 0.0577 µM; TGI: 0.342 µM and 0.438 µM

Q: `O=c1c2cc([N+](=O)[O-])ccc2sc2ccsc12` was tested. Which TGI did it give?
A: > 100 µM

Q: Which TGI does the source give for `COc1ccc(/C=C/CN(C)CCc2ccccc2)cc1OC` here?
A: > 100 µM

Q: What does the source list for `[Cl-].[Dy+3].[O-]/N=C(\c1ccccc1)c1ccccn1.[O-]/N=C(\c1ccccc1)c1ccccn1.[O-]/N=C(\c1ccccc1)c1ccccn1`?
A: GI50: 27.6 µM; TGI: 88.8 µM

Q: Which TGI does the source give for `NC(=O)C(=O)N/N=C(\CC1(O)C(=O)Nc2ccccc21)c1ccc2ccccc2c1` (stereo unspecified) here?
A: 87.9 µM

Q: `Cc1cc2c(cc1C)[n+](=O)c(C(=O)C/C(=N/NC(=O)CC#N)C(=O)Nc1ccccc1C(F)(F)F)c(C)n2[O-]` was tested. Which TGI did it give?
A: > 100 µM

Q: With `COC(=O)/C(=N/NC(=O)C[N+](C)(C)C)C(C(=O)OC)C(=O)C(=O)Nc1ccc(F)cc1` (stereo unspecified) as the compound, how does the TGI read?
A: > 100 µM

Q: `FC(F)(F)c1cccc(Nc2nccc(-c3cnn4nc(-c5ccccc5)ccc34)n2)c1` was tested. Which GI50 did it give?
A: 23.5 µM

Q: What about the TGI of the same compound?
A: > 25 µM

Q: For `CC[C@@H]1C(=O)N(C)c2cnc(Nc3ccc(C(=O)NC4CCN(C)CC4)cc3OC)nc2N1C1CCCC1`, which GI50 is on record?
A: 0.00426 µM and < 0.01 µM

Q: And the TGI?
A: 1.42 µM and 0.506 µM

Q: With `C=C1C(=O)O[C@H]2[C@H]1CC/C(COC(=O)c1ccc3ccccc3c1)=C\CC[C@@]1(C)O[C@@H]21` as the compound, how does the GI50 read?
A: 1.75 µM

Q: And the TGI?
A: 3.36 µM

Q: Which TGI does the source give for `O=C(c1ccccc1)c1nnc(C(=O)c2ccccc2)nn1` here?
A: > 344 µM

Q: Which TGI does the source give for `Brc1cccc(C=NC23CC4CC(CC(C4)C2)C3)c1` here?
A: > 100 µM

Q: With `CC(C)c1nc(CN(C)C(=O)N[C@H](C(=O)N[C@@H](Cc2ccccc2)C[C@H](O)[C@H](Cc2ccccc2)NC(=O)OCc2cncs2)C(C)C)cs1` as the compound, how does the GI50 read?
A: 22.2 µM

Q: And the TGI?
A: 45.2 µM

Q: How did the GI50 turn out when `CCC[CH2][Sn]([CH2]CCC)([O]C(=O)c1cccnc1SC)[O]C(=O)c1cccnc1SC` was run?
A: 1.3 µM

Q: What about the TGI of the same compound?
A: 2.57 µM

Q: Which GI50 does the source give for `Oc1ccc(CN2CCC(N3CCCCC3)CC2)c2cccnc12` here?
A: 64.2 µM

Q: What about the TGI of the same compound?
A: > 100 µM

Q: What does the source list for `CC[C@@]1(O)C(=O)OCc2c1cc1n(c2=O)Cc2c-1nc1cc3c(cc1c2CCl)OCO3`?
A: GI50: 0.365 µM; TGI: 8.58 µM

Q: For `CC1(C)OC2[C@@H](CNC(=O)NC(=O)NC(=O)CI)O[C@@H](n3cnc4c(NC(=O)Nc5ccccc5)ncnc43)[C@H]2O1` (stereo partly specified), which GI50 is on record?
A: 9.29 µM

Q: And the TGI?
A: 19.7 µM

Q: For `COc1cc(C2=C(c3ccccc3)COC2=O)cc(OC)c1OC`, which GI50 is on record?
A: 1.27 µM

Q: And the TGI?
A: 5.97 µM

Q: `COc1cc(C2NC(=O)c3ccccc3N2)ccc1OCCCCCOc1c(OC)cc(C2=NOC(c3cc(OC)c(OC)c(OC)c3)C2)cc1OC` (stereo unspecified) was tested. Which GI50 did it give?
A: 1.14 µM

Q: And the TGI?
A: 37.8 µM

Q: How did the GI50 turn out when `O=C1Nc2c(C(F)(F)F)cccc2[C@]1(c1ccc(O)cc1)c1ccc(OC(F)(F)F)cc1` was run?
A: 14 µM

Q: And the TGI?
A: 29.8 µM

Q: `O=C1O[C@@H](c2ccc3c(c2)OCO3)C2C(=O)O[C@@H](c3ccc4c(c3)OCO4)C12` (stereo partly specified) was tested. Which TGI did it give?
A: > 100 µM

Q: For `O=C1CCC(=O)N2CCCCN12`, which TGI is on record?
A: > 100 µM

Q: `CC(C)C(=O)NC(=S)Nc1ccc([N+](=O)[O-])cc1C#N` was tested. Which TGI did it give?
A: > 100 µM

Q: How did the TGI turn out when `C/C(CC(=O)Nc1cc(Cl)c(Cl)cc1Cl)=N\NC(N)=O` was run?
A: > 100 µM

Q: With `CC(=O)OC[C@]1(C)C=C2C(=O)[C@](C)(O)C3(CC3)C(C)=C2[C@H]1O` as the compound, how does the GI50 read?
A: 0.0985 µM

Q: And the TGI?
A: 0.353 µM

Q: Which results are given for `Oc1ccc(NCc2nc3ccccc3[nH]2)cc1`?
A: GI50: 74.2 µM; TGI: > 100 µM

Q: `O=C(O)CNS(=O)(=O)c1ccc(NCc2ccccc2)cc1` was tested. Which TGI did it give?
A: > 100 µM

Q: How did the GI50 turn out when `O=C1c2cc(Cl)ccc2S(=O)(=O)c2c(NCCCNCCO)nc3ccccc3c21` was run?
A: 4.31 µM

Q: And the TGI?
A: 15.1 µM

Q: `CC[C@@H]1CN(C)[C@H]2Cc3c([nH]c4ccccc34)C(=O)C[C@H]1C2C(=O)OC` (stereo partly specified) was tested. Which TGI did it give?
A: > 100 µM

Q: Which TGI does the source give for `COc1ccc(/C=C/c2nccc3ccccc23)cc1OC` here?
A: > 10 µM

Q: Which GI50 does the source give for `O=c1[nH]ncc(Br)c1Br` here?
A: 1.89 µM

Q: And the TGI?
A: 3.38 µM

Q: `COc1ccc(-c2cc(=O)c3c(OC)c(OC)c(OC)cc3o2)cc1` was tested. Which TGI did it give?
A: 49 µM

These compounds were tested on A549 NSCLC (assay: DTP human tumour cell line panel, 48 h).

Q: With `COC(=O)c1c/c(=N\NC(=O)CC(=O)Nc2ccccc2OC)c2ccccc2o1` as the compound, how does the TGI read?
A: > 100 µM

Q: `NC(CCC(=O)NC(CSSCCCCS(=O)O)C(=O)NCC(=O)O)C(=O)O` (stereo unspecified) was tested. Which TGI did it give?
A: > 100 µM

Q: With `COC12C=C(C)C(CC1)CC2C(=O)O` (stereo unspecified) as the compound, how does the TGI read?
A: > 100 µM

Q: With `OCC(O)CC[CH2][Sn]([Br])([c]1ccccc1)[c]1ccccc1` (stereo unspecified) as the compound, how does the GI50 read?
A: > 100 µM

Q: And the TGI?
A: > 100 µM

Q: With `CCc1ccc(/C=C\c2cc(OC)c(OC)c(OC)c2)cc1` as the compound, how does the TGI read?
A: 53.1 µM

Q: How did the TGI turn out when `O=c1c2cc([N+](=O)[O-])ccc2sc2ccsc12` was run?
A: > 100 µM

Q: Which TGI does the source give for `COc1ccc(C2=CC3CCC2C3)cc1` (stereo unspecified) here?
A: > 100 µM

Q: For `COc1ccc(/C=C/CN(C)CCc2ccccc2)cc1OC`, which TGI is on record?
A: > 100 µM

Q: Which GI50 does the source give for `[Cl-].[Dy+3].[O-]/N=C(\c1ccccc1)c1ccccn1.[O-]/N=C(\c1ccccc1)c1ccccn1.[O-]/N=C(\c1ccccc1)c1ccccn1` here?
A: 32.2 µM

Q: What about the TGI of the same compound?
A: > 100 µM

Q: Which TGI does the source give for `NC(=O)C(=O)N/N=C(\CC1(O)C(=O)Nc2ccccc21)c1ccc2ccccc2c1` (stereo unspecified) here?
A: 43.9 µM

Q: `Cc1cc2c(cc1C)[n+](=O)c(C(=O)C/C(=N/NC(=O)CC#N)C(=O)Nc1ccccc1C(F)(F)F)c(C)n2[O-]` was tested. Which TGI did it give?
A: > 100 µM

Q: How did the TGI turn out when `COC(=O)/C(=N/NC(=O)C[N+](C)(C)C)C(C(=O)OC)C(=O)C(=O)Nc1ccc(F)cc1` (stereo unspecified) was run?
A: > 100 µM

Q: With `FC(F)(F)c1cccc(Nc2nccc(-c3cnn4nc(-c5ccccc5)ccc34)n2)c1` as the compound, how does the GI50 read?
A: 5.36 µM

Q: And the TGI?
A: > 14.3 µM

Q: For `CC[C@@H]1C(=O)N(C)c2cnc(Nc3ccc(C(=O)NC4CCN(C)CC4)cc3OC)nc2N1C1CCCC1`, which GI50 is on record?
A: 0.00602 µM and < 0.0113 µM

Q: And the TGI?
A: > 10 µM and 3.5 µM

Q: Which results are given for `C=C1C(=O)O[C@H]2[C@H]1CC/C(COC(=O)c1ccc3ccccc3c1)=C\CC[C@@]1(C)O[C@@H]21`?
A: GI50: 1.59 µM; TGI: 3.43 µM

Q: For `O=C(c1ccccc1)c1nnc(C(=O)c2ccccc2)nn1`, which TGI is on record?
A: > 344 µM

Q: For `Brc1cccc(C=NC23CC4CC(CC(C4)C2)C3)c1`, which TGI is on record?
A: > 100 µM

Q: How did the GI50 turn out when `CC(C)c1nc(CN(C)C(=O)N[C@H](C(=O)N[C@@H](Cc2ccccc2)C[C@H](O)[C@H](Cc2ccccc2)NC(=O)OCc2cncs2)C(C)C)cs1` was run?
A: 23 µM

Q: What about the TGI of the same compound?
A: 65.5 µM

Q: With `CCC[CH2][Sn]([CH2]CCC)([O]C(=O)c1cccnc1SC)[O]C(=O)c1cccnc1SC` as the compound, how does the GI50 read?
A: 6.7 µM

Q: What about the TGI of the same compound?
A: 20.6 µM

Q: For `Oc1ccc(CN2CCC(N3CCCCC3)CC2)c2cccnc12`, which GI50 is on record?
A: 6.68 µM

Q: And the TGI?
A: > 100 µM

Q: What does the source list for `CC[C@@]1(O)C(=O)OCc2c1cc1n(c2=O)Cc2c-1nc1cc3c(cc1c2CCl)OCO3`?
A: GI50: < 0.01 µM; TGI: 3.25 µM

Q: With `CC1(C)OC2[C@@H](CNC(=O)NC(=O)NC(=O)CI)O[C@@H](n3cnc4c(NC(=O)Nc5ccccc5)ncnc43)[C@H]2O1` (stereo partly specified) as the compound, how does the GI50 read?
A: > 50 µM

Q: And the TGI?
A: > 50 µM

Q: What does the source list for `COc1cc(C2=C(c3ccccc3)COC2=O)cc(OC)c1OC`?
A: GI50: 6.78 µM; TGI: > 58.7 µM

Q: What does the source list for `COc1cc(C2NC(=O)c3ccccc3N2)ccc1OCCCCCOc1c(OC)cc(C2=NOC(c3cc(OC)c(OC)c(OC)c3)C2)cc1OC` (stereo unspecified)?
A: GI50: 2.25 µM; TGI: 97.7 µM

Q: What does the source list for `O=C1Nc2c(C(F)(F)F)cccc2[C@]1(c1ccc(O)cc1)c1ccc(OC(F)(F)F)cc1`?
A: GI50: 5.26 µM; TGI: 20 µM

Q: For `O=C1O[C@@H](c2ccc3c(c2)OCO3)C2C(=O)O[C@@H](c3ccc4c(c3)OCO4)C12` (stereo partly specified), which TGI is on record?
A: > 100 µM

Q: For `O=C1CCC(=O)N2CCCCN12`, which TGI is on record?
A: > 100 µM

Q: For `CC(C)C(=O)NC(=S)Nc1ccc([N+](=O)[O-])cc1C#N`, which TGI is on record?
A: > 100 µM

Q: For `C/C(CC(=O)Nc1cc(Cl)c(Cl)cc1Cl)=N\NC(N)=O`, which TGI is on record?
A: > 100 µM

Q: How did the GI50 turn out when `CC(=O)OC[C@]1(C)C=C2C(=O)[C@](C)(O)C3(CC3)C(C)=C2[C@H]1O` was run?
A: 0.172 µM

Q: And the TGI?
A: 2.8 µM

Q: For `Oc1ccc(NCc2nc3ccccc3[nH]2)cc1`, which GI50 is on record?
A: 51.6 µM

Q: And the TGI?
A: > 100 µM

Q: For `O=C(O)CNS(=O)(=O)c1ccc(NCc2ccccc2)cc1`, which TGI is on record?
A: > 100 µM

Q: For `O=C1c2cc(Cl)ccc2S(=O)(=O)c2c(NCCCNCCO)nc3ccccc3c21`, which GI50 is on record?
A: 3.22 µM

Q: What about the TGI of the same compound?
A: 12.3 µM

Q: How did the TGI turn out when `CC[C@@H]1CN(C)[C@H]2Cc3c([nH]c4ccccc34)C(=O)C[C@H]1C2C(=O)OC` (stereo partly specified) was run?
A: > 100 µM

Q: `COc1ccc(/C=C/c2nccc3ccccc23)cc1OC` was tested. Which TGI did it give?
A: > 10 µM

Q: How did the TGI turn out when `O=C1CCC2(c3ccc(F)cc3)Nc3cc(Cl)ccc3N12` (stereo unspecified) was run?
A: > 100 µM

Q: Which results are given for `O=c1[nH]ncc(Br)c1Br`?
A: GI50: 13.3 µM; TGI: 29.1 µM
